Test: recombinant barcode read abundance after kanamycin selection (control-corrected) (log10(CPM+1)); higher = more efficient recombination; sequences stand for … in AGTGCAGAGAAAATCGGCCAGTTTTCTCTGCCTGCAGTCCGCATGCCGT…AGATTTATGCAGCGGACTGCCTTTCTCCCAAAGTGATAAACCGGACAGTATCATGGACCGGTTTTCCCGGTAATCCGTATTTGCAAGGTTGGTTTCACT; site = the 11-nt target
In short: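 Recombination efficiency in this pooled E. coli screen uses counts per million of barcodes at recombinant junctions, averaged and corrected against the control. The reported form is log10(CPM+1). Two replicates were plated on chloramphenicol/ampicillin LB agar as control and two on chloramphenicol/ampicillin/kanamycin with 0.1 mM IPTG.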
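Further: IS621 recombinase and bridge RNA in Escherichia coli cells.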

Sequence	recombinant barcode read abundance (log10)
ATTCGAGCTTGGGTTCTAACCTGTTGCAT (site CGGGCGTCTTA)	0.203
ATTCGGCCTTGGGTTCTAACCTGTTGCCT (site AGTCGGCCTAG)	0.038
ATTCGGCCTTGGGTTCTAACCTGTTGCCT (site ATTCGGCCTAG)	0.0683
ATTGCTCCTTGGGTTCTAACCTGTTGCCT (site ATTGCTCCTAG)	0.416
ATTGCTCCTTGGGTTCTAACCTGTTGCCT (site ATTGGTCCTAT)	0.126
ATTGCTCCTTGGGTTCTAACCTGTTGCTT (site ATTGCTCCTAA)	0.106
ATTGCTCCTTGGGTTCTAACCTGTTGCTT (site GGTGCTCCTAA)	0.722
ATTGGTCCTTGGGTTCTAACCTGTTGCCT (site ATAGGTCCTAG)	0.994
ATTGGTCCTTGGGTTCTAACCTGTTGCCT (site ATCGGTCCTAG)	0.27
ATTGGTCCTTGGGTTCTAACCTGTTGCCT (site ATGGGTCCTAG)	0.187
ATTGGTCCTTGGGTTCTAACCTGTTGCCT (site ATTGGTCCTAG)	1.66
ATTGGTTCTTGGGTTCTAACCTGTTGCCT (site ATTGGATCTAG)	0.114
ATTGGTTCTTGGGTTCTAACCTGTTGCCT (site ATTGGCTCTAG)	0.104
ATTGGTTCTTGGGTTCTAACCTGTTGCCT (site ATTGGGTCTAG)	0.0515
ATTGGTTCTTGGGTTCTAACCTGTTGCCT (site ATTGGTTCTAG)	1.22
ATTTGAACTTGGGTTCTAACCTGTTGCCT (site ATTTGAACTAG)	0.086
ATTTGAACTTGGGTTCTAACCTGTTGCCT (site ATTTGCACTAG)	0.0882
ATTTGAACTTGGGTTCTAACCTGTTGCCT (site ATTTGGACTAG)	0.148
ATTTGAACTTGGGTTCTAACCTGTTGCCT (site ATTTGTACTAG)	0.101
ATTTGACCTTGGGTTCTAACCTGTTGCCG (site ACTTGACCTCT)	0.205
ATTTGACCTTGGGTTCTAACCTGTTGCCG (site ATTTGACCTCG)	0.67
ATTTGAGCTTGGGTTCTAACCTGTTGCTG (site ATTTGAGCTCA)	0.732
ATTTGAGCTTGGGTTCTAACCTGTTGCTG (site GTATGAGCTCA)	0.0966
CAAAAGGCTTGGGTTCTAACCTGTTGCCG (site CAAAAGGCTCG)	1.18
CAAAAGGCTTGGGTTCTAACCTGTTGCCG (site GTGTCCTCTAC)	0.239
CAAACACCTTGGGTTCTAACCTGTTGCTT (site CAAACACCTAA)	0.712

Sequence	recombinant barcode read abundance (log10)
CAAACACCTTGGGTTCTAACCTGTTGCTT (site CAACCACCTAA)	0.0879
CAAACACCTTGGGTTCTAACCTGTTGCTT (site CAAGCACCTAA)	0.0323
CAAACACCTTGGGTTCTAACCTGTTGCTT (site CAATCACCTAA)	0.426
CAAACCTCTTGGGTTCTAACCTGTTGCAC (site CAAACCTCTGT)	1.97
CAAACCTCTTGGGTTCTAACCTGTTGCAC (site TCTTAGACTTC)	0.0456
CAAAGCCCTTGGGTTCTAACCTGTTGCCT (site CAAAGCCCTAG)	1.9
CAAAGCCCTTGGGTTCTAACCTGTTGCCT (site CGGAGCCCTAG)	0.349
CAACCGACTTGGGTTCTAACCTGTTGCCT (site CAACCGACTAG)	1.61
CAACCGACTTGGGTTCTAACCTGTTGCCT (site CAACCGCCTAG)	0.265
CAACCGACTTGGGTTCTAACCTGTTGCCT (site CAACCGGCTAG)	0.0866
CAACCGACTTGGGTTCTAACCTGTTGCCT (site CAACCGTCTAG)	0.0239
CAACCGCCTTGGGTTCTAACCTGTTGCCT (site CAACCGACTAG)	0.411
CAACCGCCTTGGGTTCTAACCTGTTGCCT (site CAACCGCCTAG)	1.43
CAACCGCCTTGGGTTCTAACCTGTTGCCT (site CAACCGGCTAG)	0.402
CAACCGCCTTGGGTTCTAACCTGTTGCCT (site CAACCGTCTAG)	0.864
CAACCTACTTGGGTTCTAACCTGTTGCCT (site CAACCTACTAG)	0.586
CAACCTACTTGGGTTCTAACCTGTTGCCT (site CAATCTACTAG)	0.121
CAACTTCCTTGGGTTCTAACCTGTTGCGT (site CAACTTCCTAC)	1.18
CAACTTCCTTGGGTTCTAACCTGTTGCGT (site CGGCTTCCTAC)	0.496
CAAGACGCTTGGGTTCTAACCTGTTGCCT (site CAAGACGCTAG)	1.4
CAAGACGCTTGGGTTCTAACCTGTTGCCT (site CTAGACGCTAG)	1.34
CAAGATGCTTGGGTTCTAACCTGTTGCCT (site CAAGATGCTAG)	1.21
CAAGATGCTTGGGTTCTAACCTGTTGCCT (site CACGATGCTAG)	0.304
CAAGATGCTTGGGTTCTAACCTGTTGCCT (site CAGGATGCTAG)	0.222
CAAGATGCTTGGGTTCTAACCTGTTGCCT (site CATGATGCTAG)	0.366
CAAGATTCTTGGGTTCTAACCTGTTGCCT (site CAAGATTCTAG)	1.69

Sequence	recombinant barcode read abundance (log10)
CAAGATTCTTGGGTTCTAACCTGTTGCCT (site CCAGATTCTAG)	0.71
CAAGATTCTTGGGTTCTAACCTGTTGCCT (site CGAGATTCTAG)	0
CAAGATTCTTGGGTTCTAACCTGTTGCCT (site CTAGATTCTAG)	0.6
CAAGTGACTTGGGTTCTAACCTGTTGCCT (site CAAGTGACTAG)	1.68
CAAGTGACTTGGGTTCTAACCTGTTGCCT (site TCCTATGCTTA)	0.129
CAAGTGCCTTGGGTTCTAACCTGTTGCCT (site CAAGTGCCTAG)	2.01
CAAGTGCCTTGGGTTCTAACCTGTTGCCT (site CAAGTTCCTAG)	0.064
CAAGTTCCTTGGGTTCTAACCTGTTGCCT (site CAAGTGCCTAG)	0.62
CAAGTTCCTTGGGTTCTAACCTGTTGCCT (site CAAGTTCCTAG)	1.03
CAATACACTTGGGTTCTAACCTGTTGCCT (site CAATACACTAG)	2.34
CAATACACTTGGGTTCTAACCTGTTGCCT (site CCACACACTAG)	0.0608
CAATCGTCTTGGGTTCTAACCTGTTGCTT (site CAATCGTCTAA)	0.629
CAATCGTCTTGGGTTCTAACCTGTTGCTT (site GAATCTTCTAA)	0.0659
CAATCTGCTTGGGTTCTAACCTGTTGCCT (site CAATCTGCTAG)	0.233
CAATCTGCTTGGGTTCTAACCTGTTGCCT (site CACTCTGCTAG)	0.0111
CAATCTGCTTGGGTTCTAACCTGTTGCCT (site CAGTCTGCTAG)	0.101
CAATCTGCTTGGGTTCTAACCTGTTGCCT (site CATTCTGCTAG)	0.0288
CAATGCTCTTGGGTTCTAACCTGTTGCCT (site CAATGCTCTAG)	1.84
CAATGCTCTTGGGTTCTAACCTGTTGCCT (site CAGTGCTCTTG)	0.113
CAATGGACTTGGGTTCTAACCTGTTGCCT (site CAATGGACTAG)	1.12
CAATGGACTTGGGTTCTAACCTGTTGCCT (site CACTGGACTAG)	0.0334
CAATGGACTTGGGTTCTAACCTGTTGCCT (site CAGTGGACTAG)	0.106
CAATGGACTTGGGTTCTAACCTGTTGCCT (site CATTGGACTAG)	0.103
CAATGGTCTTGGGTTCTAACCTGTTGCTT (site CAATGGTCTAA)	1.86
CAATGGTCTTGGGTTCTAACCTGTTGCTT (site CAATGGTCTAC)	1.64

Reference: the supplement of paper PMC11208160
